Source: patent US20030103863A1, “High pressure sterilising of sensitive active principles” (priority 2000, published 2003)

Legend:
[1] = HPLC purity after high pressure treatment; assay type: physicochemical; conditions: powder, high pressure treatment at 5,000 bars
Procedure: Complementary tests were conducted to show the harmlessness of the treatment by high pressure on the fragile elements. In this case, these elements were placed in solution or in the form of powder.
a) The peptide, in this case Gramicidin, is subjected to a high pressure treatment at 5,000 bars, and its purity was also tested by HPLC, the variations remaining less than 1%. The high pressures have no influence on the structure.

[2] = HPLC chromatography of insulin after high pressure treatment; assay type: physicochemical; conditions: 4,000, 5,000 and 6,000 bars for 10 minutes, ambient temperature and −20° C.; analyzed at 214 nm
Procedure: b) Insulin was selected at 40 UI, commercial form, and diluted to {fraction (1/100 )} at pH 2.5. For the measurement, passage is carried out with a flow rate of 1 ml/min in an HPLC (High Pressure Liquid Chromatography) apparatus.
Different specimens were subjected, at ambient temperature and at a negative temperature of −20° C., to:
atmospheric pressure for the standard,
5,000 bars for 10 minutes, and
The specimens, after treatment, are then analyzed at 214 nm in a chromatographic apparatus with automatic injection.

Substance | variations of purity by HPLC [1] | modifications or alterations of the structure (HPLC curves vs standard at atmospheric pressure) [2]
gramicidin | less than 1% | 
insulin |  | no noticeable modifications or alterations
